Results taken from US11427548B2 (Arvinas Operations, Inc., priority 2015, dated 2022).
Like-named read-outs stand apart in the source and are kept apart here.

Molecular target: T1, Androgen Receptor (Homo sapiens, UniProt P10275)
T1 construct: endogenous in cells; host or cells: VCaP cells
T1 sequence (P10275 1-920): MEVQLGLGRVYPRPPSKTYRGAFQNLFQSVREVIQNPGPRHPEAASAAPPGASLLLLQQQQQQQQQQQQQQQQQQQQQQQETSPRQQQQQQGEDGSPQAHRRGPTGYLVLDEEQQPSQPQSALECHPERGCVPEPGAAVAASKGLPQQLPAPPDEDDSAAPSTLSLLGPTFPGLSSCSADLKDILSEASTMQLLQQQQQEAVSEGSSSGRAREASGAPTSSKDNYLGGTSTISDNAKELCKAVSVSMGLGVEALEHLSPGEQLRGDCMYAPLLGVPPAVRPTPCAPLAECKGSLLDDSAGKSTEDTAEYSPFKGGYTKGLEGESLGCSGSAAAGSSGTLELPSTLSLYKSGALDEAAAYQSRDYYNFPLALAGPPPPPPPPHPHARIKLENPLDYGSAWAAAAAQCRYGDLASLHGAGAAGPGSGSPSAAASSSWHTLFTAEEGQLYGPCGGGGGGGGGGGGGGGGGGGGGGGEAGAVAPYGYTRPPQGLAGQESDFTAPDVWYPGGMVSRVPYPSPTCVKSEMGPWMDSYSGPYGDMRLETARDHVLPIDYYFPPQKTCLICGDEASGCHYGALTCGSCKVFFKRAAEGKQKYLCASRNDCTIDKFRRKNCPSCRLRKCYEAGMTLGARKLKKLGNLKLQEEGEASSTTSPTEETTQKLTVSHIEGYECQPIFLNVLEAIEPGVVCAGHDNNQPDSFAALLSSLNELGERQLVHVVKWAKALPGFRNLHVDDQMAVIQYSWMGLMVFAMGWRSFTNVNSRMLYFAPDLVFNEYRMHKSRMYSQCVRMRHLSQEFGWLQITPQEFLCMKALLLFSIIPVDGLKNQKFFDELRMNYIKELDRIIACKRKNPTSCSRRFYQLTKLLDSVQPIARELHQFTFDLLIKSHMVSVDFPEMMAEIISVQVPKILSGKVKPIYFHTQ
Assay: Androgen Receptor ELISA assay (PathScan AR ELISA) in VCaP cells: AR degradation, Dmax and DC50
Type: cell-based
Conditions: for DC50: read-out: VCaP DC50; for Dmax: VCaP, read-out: VCaP Dmax (%)
In short: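 After 24 h exposure of VCaP cells (charcoal-stripped serum, 0.1 nM R1881 agonist, 0.1% DMSO) to seven half-log compound concentrations, residual AR in lysates was measured by PathScan ELISA (TMB absorbance, 450 nm). Cells were plated at 30,000/well and grown at least 3 days beforehand.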

| DC50 (VCaP cells, Table 36) [nM] | Dmax (VCaP cells, Table 36) [%] | SMILES | Dmax [%] |
| --- | --- | --- | --- |
| > 501 | 26 to 50 | Cc1nc(-c2ccn(C[C@H](C)NC(=O)c3cc(COCCCN4CCN(CC(=O)N[C@H](C(=O)N5C[C@H](O)C[C@H]5C(=O)N[C@@H](C)c5ccc(-c6scnc6C)cc5)C(C)(C)C)CC4)[nH]n3)n2)ccc1C#N [Example 767, N-((S)-1-(3-(5-cyano-6-methylpyridin-2-yl)-1H-pyrazol-1-yl)propan-2-yl)-5-((3-(4-(2-(((S)-1-((2S,4R)-4-hydroxy-2-(((S)-1-(4-(4-methylthiazol-5-yl)phenyl)ethyl)carbam-oyl)pyrrolidin-1-yl)-3,3-dimethyl-1-oxobutan-2-yl)amino)-2-oxoethyl)piperazin-1-yl)propoxy)methyl)-1H-pyrazole-3-carboxamide] |  |
| > 501 | < 25 | Cc1ncsc1-c1ccc([C@H](C)NC(=O)C2C[C@@H](O)CN2C(=O)C(NC(=O)CCCN2CCN(c3ccc(C(=O)N[C@H]4C(C)(C)[C@H](Oc5ccc(C#N)c(Cl)c5)C4(C)C)cn3)CC2)C(C)(C)C)cc1 (stereo partly drawn) [Example 768, N-((1r,3r)-3-(3-chloro-4-cyanophenoxy)-2,2,4,4-tetramethylcyclobutyl)-6-(4-(4-(((S)-1-((2S,4R)-4-hydroxy-2-(((S)-1-(4-(4-methylthiazol-5-yl)phenyl)ethyl)carbam-oyl)pyrrolidin-1-yl)-3,3-dimethyl-1-oxobutan-2-yl)amino)-4-oxobutyl)piperazin-1-yl)nicotinamide] |  |
| > 501 | < 25 | CC(C)[C@H](C(=O)N1C[C@H](O)C[C@H]1C(=O)NCc1ccc(Cl)cc1)N1Cc2ccc(N3CCN(CCCc4ccc(C(=O)N[C@H]5C(C)(C)[C@H](Oc6ccc(C#N)c(C(F)(F)F)c6)C5(C)C)cc4)CC3)cc2C1=O [Example 769, (2S,4R)-N-(4-chlorobenzyl)-1-((R)-2-(6-(4-(3-(4-(((1r,3r)-3-(4-cyano-3-(trifluoromethyl)phenoxy)-2,2,4,4-tetramethylcyclobutyl)carbamoyl)phenyl)propyl)piperaizn-1-yl)-1-oxoisoindolin-2-yl)-3-methylbutanoyl)-4-hydroxypyrrolidine-2-carboxamide] |  |
| > 501 | < 25 | CC(C)[C@@H](C(=O)N1C[C@H](O)C[C@H]1C(=O)NCc1ccc(Cl)cc1)N1Cc2ccc(N3CCN(CCCc4ccc(C(=O)N[C@H]5C(C)(C)[C@H](Oc6ccc(C#N)c(C(F)(F)F)c6)C5(C)C)cc4)CC3)cc2C1=O [Example 770, (2S,4R)-N-(4-chlorobenzyl)-1-((S)-2-(6-(4-(3-(4-(((1r,3r)-3-(4-cyano-3-(trifluoromethyl)phenoxy)-2,2,4,4-tetramethylcylcobutyl)carbamoyl)phenyl)propyl)piperazin-1-yl)-1-oxoisoindolin-2-yl)-3-methylbutanoyl)-4-hydroxypyrrolidine-2-carboxamide] |  |
| > 501 | < 25 | CC(C)[C@H](C(=O)N1C[C@H](O)C[C@H]1C(=O)NCc1ccc(C#N)cc1)N1Cc2ccc(N3CCN(CCCc4ccc(C(=O)N[C@H]5C(C)(C)[C@H](Oc6ccc(C#N)c(C(F)(F)F)c6)C5(C)C)cc4)CC3)cc2C1=O [Example 771, (2S,4R)-1-((R)-2-(6-(4-(3-(4-(((1r,3r)-3-(4-cyano-3-(trifluoromethyl)phenoxy)-2,2,4,4-tetramethylcyclobutyl)carbamoyl)phenyl)propyl)piperazin-1-yl)-1-oxoisoindolin-2-yl)-3-methylbutanoyl)-N-(4-cyanobenzyl)-4-hydroxypyrrolidine-2-carboxamide] |  |
| > 501 | < 25 | CC(C)[C@@H](C(=O)N1C[C@H](O)C[C@H]1C(=O)NCc1ccc(C#N)cc1)N1Cc2ccc(N3CCN(CCCc4ccc(C(=O)N[C@H]5C(C)(C)[C@H](Oc6ccc(C#N)c(C(F)(F)F)c6)C5(C)C)cc4)CC3)cc2C1=O [Example 772, (2S,4R)-1-((S)-2-(6-(4-(3-(4-(((1r,3r)-3-(4-cyano-3-(trifluoromethyl)phenoxy)-2,2,4,4-tetramethylcyclobutyl)carbamoyl)phenyl)propyl)piperazin-1-yl)-1-oxoisoindolin-2-yl)-3-methylbutanoyl)-N-(4-cyanobenzyl)-4-hydroxypyrrolidine-2-carboxamide] |  |
| > 501 | < 25 | Cc1ncsc1-c1ccc(CNC(=O)[C@@H]2C[C@@H](O)CN2C(=O)[C@@H](C(C)C)N2Cc3ccc(N4CCN(CCCc5ccc(C(=O)N[C@H]6C(C)(C)[C@H](Oc7ccc(C#N)c(Cl)c7)C6(C)C)cc5)CC4)cc3C2=O)cc1 [Example 773, (2S,4R)-1-((R)-2-(6-(4-(3-(4-(((1r,3r)-3-(3-chloro-4-cyanophenoxy)-2,2,4,4-tetramethylcyclobutyl)carbamoyl)phenyl)propyl)piperazin-1-yl)-1-oxoisoindolin-2-yl)-3-methylbutanoyl)-4-hydroxy-N-(4-(4-methylthiazol-5-yl)benzyl)pyrrolidine-2-carboxamide] |  |
| > 501 | < 25 | Cc1ncsc1-c1ccc(CNC(=O)[C@@H]2C[C@@H](O)CN2C(=O)[C@H](C(C)C)N2Cc3ccc(N4CCN(CCCc5ccc(C(=O)N[C@H]6C(C)(C)[C@H](Oc7ccc(C#N)c(Cl)c7)C6(C)C)cc5)CC4)cc3C2=O)cc1 [Example 774, (2S,4R)-1-((S)-2-(6-(4-(3-(4-(((1r,3r)-3-(3-chloro-4-cyanophenoxy)-2,2,4,4-tetramethylcyclobutyl)carbamoyl)phenyl)propyl)piperazin-1-yl)-1-oxoisoindolin-2-yl)-3-methylbutanoyl)-4-hydroxy-N-(4-(4-methylthiazol-5-yl)benzyl)pyrrolidine-2-carboxamide] |  |
| > 501 | < 25 | CC(C)(C)[C@H](NC(=O)COCCN1CCN(c2ccc(C(=O)N[C@H]3C(C)(C)[C@H](Oc4ccc(C#N)c(Cl)c4)C3(C)C)cn2)CC1)C(=O)N1C[C@H](O)C[C@H]1C(=O)NCc1cc(F)ccc1F [Example 775, N-((1r,3r)-3-(3-chloro-4-cyanophenoxy)-2,2,4,4-tetramethylcyclobutyl)-6-(4-(2-(2-(((S)-1-((2S,4R)-2-((2,5-difluorobenzyl)carbamoyl)-4-hydroxypyrrolidin-1-yl)-3,3-dimethyl-1-oxobutan-2-yl)amino)-2-oxoethoxy)ethyl)piperazin-1-yl)nicotinamide] |  |
| > 501 | < 25 | CC(C)(C)c1ccc(CNC(=O)[C@@H]2C[C@@H](O)CN2C(=O)[C@@H](NC(=O)COCCN2CCN(c3ccc(C(=O)N[C@H]4C(C)(C)[C@H](Oc5ccc(C#N)c(Cl)c5)C4(C)C)cn3)CC2)C(C)(C)C)cc1 [Example 776, 6-(4-(2-(2-(((S)-1-((2S,4R)-2-((4-(tert-butyl)benzyl)carbamoyl)-4-hydroxypyrrolidin-1-yl)-3,3-dimethyl-1-oxobutan-2-yl)amino)-2-oxoethoxy)ethyl)piperazin-1-yl)-N-((1r,3r)-3-(3-chloro-4-cyanophenoxy)-2,2,4,4-tetramethylcyclobutyl) nicotinamide] |  |

| SMILES | DC50 (VCaP cells, Table 36) [nM] | Dmax (VCaP cells, Table 36) [%] | Dmax [%] |
| --- | --- | --- | --- |
| Cc1ncsc1-c1ccc([C@H](C)NC(=O)[C@@H]2C[C@@H](O)CN2C(=O)[C@@H](C(C)C)N2Cc3ccc(N4CCN(CCCc5ccc(C(=O)N[C@H]6C(C)(C)[C@H](Oc7ccc(C#N)c(Cl)c7)C6(C)C)cc5)CC4)cc3C2=O)cc1 [Example 777, (2S,4R)-1-((R)-2-(6-(4-(3-(4-(((1r,3r)-3-(3-chloro-4-cyanophenoxy)-2,2,4,4-tetramethylcyclobutyl)carbamoyl)phenyl)propyl)piperazin-1-yl)-1-oxoisoindolin-2-yl)-3-methylbutanoyl)-4-hydroxy-N-((S)-1-(4-(4-methylthiazol-5-yl)phenyl)ethyl)pyrrolidine-2-carboxamide] | > 501 |  | < 25 |
| Cc1ncsc1-c1ccc([C@H](C)NC(=O)[C@@H]2C[C@@H](O)CN2C(=O)[C@H](C(C)C)N2Cc3ccc(N4CCN(CCCc5ccc(C(=O)N[C@H]6C(C)(C)[C@H](Oc7ccc(C#N)c(Cl)c7)C6(C)C)cc5)CC4)cc3C2=O)cc1 [Example 778, (2S,4R)-1-((S)-2-(6-(4-(3-(4-(((1r,3r)-3-(3-chloro-4-cyanophenoxy)-2,2,4,4-tetramethylcyclobutyl)carbamoyl)phenyl)propyl)piperazin-1-yl)-1-oxoisoindolin-2-yl)-3-methylbutanoyl)-4-hydroxy-N-((S)-1-(4-(4-methylthiazol-5-yl)phenyl)ethyl)pyrrolidine-2-carboxamide] | > 501 |  | < 25 |
